Values of other authors, collected in US7105537B2, “2-substituted cyclic amines as calcium sensing receptor modulators” (Bristol-Myers Squibb Company, priority 2003, dated 2006).

Key:
[1] = system: postmenopausal women; settings: placebo-controlled trial
[2] = system: osteopenic ovariectomized (OVX) rats; settings: oral administration, in the presence of an anti-resorptive agent
[3] = intravenous bolus injection

Row | Compound | reduction of the risk of non-traumatic, non-spine fractures [1] [%] | reduction of the risk of spine fractures [1] [%] | bone mass [2] | serum PTH [3]
1 | PTH peptide fragment (1–34): "the PTH peptide fragment (1–34) was shown to reduce the risk of spine fractures and non-traumatic, non-spine fractures" (SVSEIQLMHNLGKHLNSMERVEWLRKKLQDVHNF; Parathyroid hormone; UniProt P01270 32-65, looked up, fragment) | 54 | 65 |  | 
2 | CC(C)(Cc1ccc2ccccc2c1)NC[C@@H](O)COc1cccc(Cl)c1C#N [NPS-2143] |  |  | increase in bone mas | transient increase in serum PTH
